For 17 compounds, IC50 results are on record in patent US20240246950A1, “Anilino-Pyrazole Derivatives, Compositions and Methods Thereof” (Ensem Therapeutics, priority 2022, published 2024).

Test [1] has as its target GSK3β (Homo sapiens, UniProt P49841). The test can be described thus: In vitro kinase TR-FRET assay GSK3β. The test is classed as biochemical. Conditions: enzyme 0.6 nM, ATP 7.6 μM. How it is done:
(§1) In vitro kinase TR-FRET assays: CDK2/CycA2, CDK2/CycE1, CDK1/cyclinB and GSK3β
(§2) The test compounds were prepared as 10 mM stock solution in 100% DMSO. The stock solution was then serially diluted 3-fold in 100% DMSO to 10 concentrations. 200 nL of each diluted compound solution was transferred to 384-well plate in duplicate. To each well, 5 uL of enzyme and ATP mixture solution containing enzyme CDK2/CycA2, CDK2/CycE1, CDK1/cyclinB, or GSK30 (final concentrations 3 nM, 0.6 nM, 0.3 nM, 0.6 nM, respectively) and ATP (final concentrations 27 μM, 82 μM, 56 μM, 7.6 μM, respectively) in the assay buffer (50 mM HEPES, pH7.5, 10 mM MgCl2, 1 mM DTT, 0.01% BSA, 0.01% Triton X-100). For negative control, 5 uL of assay buffer was added instead. The plate was incubated at room temperature for 10 min. 5 uL of peptide solution containing ULight-4E-BP1 peptide (final concentrations 50 nM) in the assay buffer was subsequently added into each well to initiate the reaction. By incubation at room temperature for 1 hour, 10 uL of 2 nM Eu-anti-phospho-4E BP1 antibody was then added for detection. After one hour incubation at room temperature, all samples were subjected to read the TR-FRET signal on Envision with excitation at 340 nm and emission fluorescence at 615 nm and 665 nm. IC50 values were then calculated by plotting dose-response curves and then using the XLfit application in Excel software.

The target of test [2] is CDK1/cyclinB (Homo sapiens, UniProt P06493). Kind of test: In vitro kinase TR-FRET assay CDK1/cyclinB. The format is biochemical. Conditions: enzyme 0.3 nM, ATP 56 μM. How it is done: as §1, §2
Chain of CDK1/cyclinB (P06493 whole entry): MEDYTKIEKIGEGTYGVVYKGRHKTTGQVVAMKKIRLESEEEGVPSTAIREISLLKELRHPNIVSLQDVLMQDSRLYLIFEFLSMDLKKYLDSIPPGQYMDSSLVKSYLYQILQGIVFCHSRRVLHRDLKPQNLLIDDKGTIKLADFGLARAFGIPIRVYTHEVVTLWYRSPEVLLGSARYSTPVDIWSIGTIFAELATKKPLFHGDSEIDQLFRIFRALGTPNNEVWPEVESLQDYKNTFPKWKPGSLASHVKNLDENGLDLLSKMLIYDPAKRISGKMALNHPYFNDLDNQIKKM
Chain of CDK1/cyclinB (P14635 whole entry partner): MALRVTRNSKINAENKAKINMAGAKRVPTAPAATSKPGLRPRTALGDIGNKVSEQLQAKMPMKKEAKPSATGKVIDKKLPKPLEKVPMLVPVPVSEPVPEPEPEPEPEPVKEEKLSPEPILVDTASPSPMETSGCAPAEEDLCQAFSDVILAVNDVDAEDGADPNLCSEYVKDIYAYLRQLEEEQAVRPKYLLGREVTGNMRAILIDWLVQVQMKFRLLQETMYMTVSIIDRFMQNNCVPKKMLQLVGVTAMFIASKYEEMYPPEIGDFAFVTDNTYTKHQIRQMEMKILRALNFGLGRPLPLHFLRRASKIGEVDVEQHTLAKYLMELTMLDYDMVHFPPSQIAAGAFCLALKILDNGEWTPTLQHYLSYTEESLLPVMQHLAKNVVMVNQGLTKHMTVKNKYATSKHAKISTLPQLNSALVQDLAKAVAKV
The target in test [3] is CDK2/CycA2 (Homo sapiens, UniProt P24941). The test can be described thus: In vitro kinase TR-FRET assay CDK2/CycA2. The conditions noted are these: enzyme 3 nM, ATP 27 μM, read-out: CDK2 cyclinA2 activity assay: IC50. The test is classed as biochemical. How it is done:
as §1, §2

Test [4] has as its target CDK2/CycE1 (Homo sapiens, UniProt P24941). Kind of test: In vitro kinase TR-FRET assay CDK2/CycE1. The format is biochemical. Conditions: enzyme 0.6 nM, ATP 82 μM, read-out: CDK2 cyclinE1 activity assay: IC50. How it is done:
as §1, §2

Test [5] concerns OVCAR3. The test can be described thus: Cell proliferation (CyQUANT) OVCAR3. Conditions: Homo sapiens, OVCAR-3, 168 h, OVCAR3, 7 days, read-out: Anti-proliferation assay: IC50 (nM) [Cell Line: OVCAR3]. The format is cell-based. How it is done: (§3) Cancer cell lines, namely, OVCAR3, TOV21G were seeded onto 96 well cell culture plates at a density of 2500, 1000 or 3000 cells/well, respectively and cultured overnight. Cells treated with test compounds at 3-fold dose titration for 7 days at maximum final DMSO concentration of 0.01%. The CyQUANT® Cell Proliferation Assay, a highly sensitive fluorescence-based method for quantifying cells and assessing cell proliferation and cytotoxicity was employed, following manufacturer's procedure (ThermnoFisher, Cataloge #C35012). Plates were scanned with a laser-based Acumen Cellistra instrument by TTP LabTech at Ex/Em 480/520 nm. % Inhibition is calculated based on DMSO control wells on the same plate (ie, DMSO wells have 100% growth and 0% growth inhibition).

For test [6], the system named is TOV21G. Kind of test: Cell proliferation (CyQUANT) TOV21G. Conditions: Homo sapiens, 168 h, 7 days, read-out: Anti-proliferation assay: IC50 (nM) [Cell Line: TOV21G]. The test is classed as cell-based. How it is done: as §3

Chain of GSK3β (P49841 whole entry, species assumed): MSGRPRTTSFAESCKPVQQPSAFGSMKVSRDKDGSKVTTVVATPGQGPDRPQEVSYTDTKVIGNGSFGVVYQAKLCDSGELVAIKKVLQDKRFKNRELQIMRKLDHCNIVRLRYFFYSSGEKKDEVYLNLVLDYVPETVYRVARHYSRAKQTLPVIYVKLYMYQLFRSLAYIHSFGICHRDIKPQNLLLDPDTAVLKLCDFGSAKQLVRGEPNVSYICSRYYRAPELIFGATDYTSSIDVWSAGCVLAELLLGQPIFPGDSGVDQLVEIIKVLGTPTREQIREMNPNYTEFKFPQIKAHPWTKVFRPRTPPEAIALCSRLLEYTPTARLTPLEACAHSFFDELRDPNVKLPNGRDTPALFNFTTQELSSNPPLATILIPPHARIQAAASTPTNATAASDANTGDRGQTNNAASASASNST

For `CC(C)NC(=O)O[C@@H]1CC[C@H](c2cc(Nc3ccc4c(c3)C(C)(C)NS4(=O)=O)n[nH]2)C1` [Example 13, (1R,3S)-3-(3-((3,3-dimethyl-1,1-dioxido-2,3-dihydrobenzo[d]isothiazol-5-yl)amino)-1H-pyrazol-5-yl)cyclopentyl isopropylcarbamate], the IC50 was 50 to 500 nM in test [1], 50 to 500 nM in test [2], below 50 nM in test [3] and below 50 nM in test [4].

Take `CC(C)NC(=O)O[C@H]1C[C@@H](c2cc(Nc3nccc4c3CCS4(=O)=O)n[nH]2)C1` [Example 70, (1s,3s)-3-(3-((1,1-dioxido-2,3-dihydrothieno[3,2-c]pyridin-4-yl)amino)-1H-pyrazol-5-yl)cyclobutyl isopropylcarbamate]: the IC50 was below 50 nM in test [1]; below 50 nM in test [2]; at most 500 nM in test [5]; below 50 nM in test [3]; below 50 nM in test [4]; at most 500 nM in test [6].

For `CC(C)NC(=O)O[C@@H]1CC[C@H](c2cc(Nc3cccc4c3CCS(=O)(=O)N4)n[nH]2)C1` [Example 53, (1R,3S)-3-(3-((2,2-dioxido-3,4-dihydro-1H-benzo[c][1,2]thiazin-5-yl)amino)-1H-pyrazol-5-yl)cyclopentyl isopropylcarbamate], the IC50 in test [1] was above 1000 nM; in test [2], 500 to 1000 nM; in test [3] it was below 50 nM; in test [4], below 50 nM.

Regarding `CC(C)NC(=O)O[C@@H]1CC[C@H](c2[nH]nc(Nc3ccc4c(c3)CNS4(=O)=O)c2F)C1` [Example 14, (1R,3S)-3-(3-((1,1-dioxido-2,3-dihydrobenzo[d]isothiazol-5-yl)amino)-4-fluoro-1H-pyrazol-5-yl)cyclopentyl isopropylcarbamate], the IC50 in test [1] is above 1000 nM; in test [2], 50 to 500 nM; in test [3] it was below 50 nM; in test [4] it was below 50 nM.

Regarding `CC(C)NC(=O)O[C@@H]1CC[C@H](c2cc(Nc3ccc4c(c3)C(=O)NC4)n[nH]2)C1` [Example 20, (1R,3S)-3-{5-[(3-oxo-2,3-dihydro-1H-isoindol-5-yl)amino]-2H-pyrazol-3-yl}cyclopentyl (prop-2-ylamino)methanoate], the IC50 in test [1] is above 1000 nM; in test [2] it was 500 to 1000 nM; in test [3], below 50 nM; in test [4], below 50 nM.

Regarding `Cc1c([C@@H]2CC[C@H](OC(=O)NC(C)C)C2)n[nH]c1Nc1ccc2c(c1)CCS2(=O)=O` (racemic) [Example 24, cis 3-{5-[(1,1-dioxo-2,3-dihydro-1λ6-benzothiophen-5-yl)amino]-4-methyl-1H-pyrazol-3-yl}cyclopentyl (prop-2-ylamino)methanoate], the IC50 in test [1] is above 1000 nM; in test [2] it was above 1000 nM; in test [3], 500 to 1000 nM; in test [4], 50 to 500 nM.

Regarding `CC(C)NC(=O)O[C@@H]1CC[C@H](c2cc(Nc3ccc4c(c3)N(C)C(=O)NS4(=O)=O)n[nH]2)C1` [Example 18, (1R,3S)-3-(3-((4-methyl-1,1-dioxido-3-oxo-3,4-dihydro-2H-benzo[e][1,2,4]thiadiazin-6-yl)amino)-1H-pyrazol-5-yl)cyclopentyl isopropylcarbamate], the IC50 was 50 to 500 nM in test [1], 500 to 1000 nM in test [2], below 50 nM in test [3] and below 50 nM in test [4].

Take `CC(C)NC(=O)O[C@@H]1CC[C@H](c2cc(Nc3cccc4c3CS(=O)(=O)N4)n[nH]2)C1` [Example 48, (1R,3S)-3-(3-((2,2-dioxido-1,3-dihydrobenzo[c]isothiazol-4-yl)amino)-1H-pyrazol-5-yl)cyclopentyl isopropylcarbamate]: the IC50 in test [1] is above 1000 nM; in test [2], above 1000 nM; in test [3], 50 to 500 nM; in test [4] it was 50 to 500 nM.

`O=C(NC1CC1)O[C@@H]1CC[C@H](c2cc(Nc3nccc4c3CCS4(=O)=O)n[nH]2)C1` [Example 71, (1R,3S)-3-{5-[(1,1-dioxo-2,3-dihydro-1λ^6-thieno[3,2-c]pyridin-4-yl)amino]-2H-pyrazol-3-yl}cyclopentyl (cyclopropylamino)methanoate]: the IC50 in test [1] was 50 to 500 nM; in test [2], 50 to 500 nM; in test [3], below 50 nM; in test [4], below 50 nM.

As for `CC(C)NC(=O)O[C@@H]1CC[C@H](c2cc(Nc3cc4c(cn3)CCS4(=O)=O)n[nH]2)C1` [Example 72, (1R,3S)-3-{5-[(1,1-dioxo-2,3-dihydro-1λ^6-thieno[3,2-c]pyridin-6-yl)amino]-1H-pyrazol-3-yl}cyclopentyl (prop-2-ylamino)methanoate], the IC50 in test [1] is above 1000 nM; in test [2] it was below 50 nM; in test [3], below 50 nM; in test [4], below 50 nM.

As for `Cc1c(Nc2ccc3c(c2)CS(=O)(=O)C3)n[nH]c1[C@H]1CC[C@@H](OC(=O)NC(C)(C)C)C1` [Example 44, (1R,3S)-3-{5-[(2,2-dioxo-1,3-dihydro-2%6-benzo[c]thiophen-5-yl)amino]-4-methyl-2H-pyrazol-3-yl}cyclopentyl [(2-methylprop-2-yl)amino]methanoate], the IC50 in test [1] is above 1000 nM; in test [2] it was above 1000 nM; in test [3], 50 to 500 nM; in test [4], 50 to 500 nM.

`Cc1c(Nc2ccc3c(c2)CS(=O)(=O)C3)n[nH]c1[C@H]1CC[C@@H](OC(=O)NC(C)C)C1` [Example 43, (1R,3S)-3-{5-[(2,2-dioxo-1,3-dihydro-2λ^6-benzo[c]thiophen-5-yl)amino]-4-methyl-2H-pyrazol-3-yl}cyclopentyl (prop-2-ylamino)methanoate]: the IC50 in test [1] was above 1000 nM; in test [2], above 1000 nM; in test [3], 50 to 500 nM; in test [4] it was 50 to 500 nM.

Take `CC(C)NC(=O)O[C@@H]1CC[C@H](c2cc(Nc3cc4c(cc3F)S(=O)(=O)CC4)n[nH]2)C1` [Example 54, (1R,3S)-3-(3-((6-fluoro-1,1-dioxido-2,3-dihydrobenzo[b]thiophen-5-yl)amino)-1H-pyrazol-5-yl)cyclopentyl isopropylcarbamate]: the IC50 in test [1] is above 1000 nM; in test [2], above 1000 nM; in test [3], below 50 nM; in test [4], below 50 nM.

With `CC(C)NC(=O)O[C@@H]1CC[C@H](c2cc(Nc3c(F)ccc4c3CCS4(=O)=O)n[nH]2)C1` [Example 52, (1R,3S)-3-(3-((5-fluoro-1,1-dioxido-2,3-dihydrobenzo[b]thiophen-4-yl)amino)-1H-pyrazol-5-yl)cyclopentyl isopropylcarbamate], the IC50 was above 1000 nM in test [1], above 1000 nM in test [2], 50 to 500 nM in test [3] and below 50 nM in test [4].

Consider `CC(C)NC(=O)O[C@@H]1CC[C@H](c2cc(Nc3cccc4c3S(=O)(=O)CC4)n[nH]2)C1` [Example 35, (1R,3S)-3-{5-[(1,1-dioxo-2,3-dihydro-1λ6-benzo[2,1-b]thiophen-7-yl)amino]-2H-pyrazol-3-yl}cyclopentyl (prop-2-ylamino)methanoate], for which the IC50 in test [1], in test [2], in test [3] and in test [4] was above 1000 nM each time.

Turning to `CC(C)NC(=O)O[C@@H]1CC[C@H](c2cc(Nc3cccc4c3N(C)S(=O)(=O)C4)n[nH]2)C1` [Example 51, (1R,3S)-3-{5-[(1-methyl-2,2-dioxo-1,3-dihydro-2λ^6-benzo[2,1-c][1,2]thiazol-7-yl)amino]-2H-pyrazol-3-yl}cyclopentyl (prop-2-ylamino)methanoate], the IC50 is above 1000 nM in test [1], 50 to 500 nM in test [2], 500 to 1000 nM in test [3] and 50 to 500 nM in test [4].

As for `CC(C)NC(=O)O[C@@H]1CC[C@H](c2cc(Nc3ccc4c(c3)S(=O)(=O)CCC4)n[nH]2)C1` [Example 39, (1R,3S)-3-(3-((1,1-dioxidothiochroman-7-yl)amino)-1H-pyrazol-5-yl)cyclopentyl isopropylcarbamate], the IC50 in test [1] was 50 to 500 nM; in test [2] it was 50 to 500 nM; in test [3], below 50 nM; in test [4], below 50 nM.
